Experimental data from US20230217926A1, “SELECTIVE HERBICIDES BASED ON SUBSTITUTED ISOXAZOLIN CARBOXAMIDES AND ISOXADIFEN-ETHYL” (BAYER AKTIENGESELLSCHAFT, priority 2020, published 2023).

Tests used:
ZEAMA Abraxas = experiment: Tank-mix post-emergence crop damage, greenhouse, visual assessment; assay type: in vivo, maize; design: key to Reduction [Difference]: % injury reduction: damage without minus with safener (0–100% scale); settings: for HER effect + SAF / Reduction [%] / Reduction [Difference]: Final; for HER effect: no safener, Final assessment
Experimental: (§1) Seeds of crops (spring wheat, TRZAS; spring barley, HORVS; maize, ZEAMA) were placed in sandy loam soil in peat pots, covered with soil and cultivated in a greenhouse under good growth conditions. Two to three weeks after sowing, the test plants were treated at the 1 to 3-leaf stage. The herbicide/safener active compound combinations according to the invention, formulated as wettable powders or emulsion concentrates, and, in parallel tests, the correspondingly formulated individual active compounds were sprayed onto the green parts of the plants in various dosages using an amount of water of 300 l/ha (converted).
(§2) The pots were returned under good growing conditions in a glasshouse and a visual assessment of herbicidal effects was made at intervals from 1 to 3 weeks after herbicide application (DAT=days after treatment). Assessment was on a percentage basis in comparison with untreated control plants (0%=no injury, 100%=complete kill).
(§3) Reduction[Difference]=herbicide damage without safener−herbicide damage with safener Reduction[%]=(Reduction[Difference]*100)/herbicide damage without safener
b) Plant Species, Variety: ZEAMA Abraxas, Safener (SAF): Isoxadifen-Ethyl

TRZAS Triso = experiment: Safener seed treatment, pre-emergence herbicide, crop damage; assay type: in vivo, spring wheat; design: key to Reduction [Difference]: % crop damage without safener minus % damage with safener; settings: HER 15 g a.i./ha pre-emergence; for Reduction [%] / Reduction [Difference]: isoxadifen-ethyl 0.25 g a.i./kg seed; for HER effect + SAF: isoxadifen-ethyl seed treatment 0.25 g a.i./kg seed; for HER effect: no safener
Experimental: (§4) For the safener seed treatment, sufficient seeds of the respective crops (spring wheat, TRZAS; spring barley, HORVS; maize, ZEAMA) were weighed into screw top glass bottles approximately twice the volume of the seeds.
(§5) The specified safeners, formulated as wettable powder (WP) were weighed out so that the specified rates (g a.i./kg seed) would be obtained, dissolved in water (1 ml water per 10 g of seeds), and added to the seeds to produce a slurry.
(§6) The bottles were capped and then placed in an overhead shaker (set at medium speed for ca. 60 minutes) so that the seeds were evenly coated with the slurry. The bottles were uncapped and the seeds were either placed on paper and dried for an interval of 3-4 hours prior to sowing, or directly sown. Seeds were placed in sandy loam soil in pots of a diameter of 7-8 cm, and covered with soil.
(§7) Pre-emergence application of the specified herbicides was done subsequently, on two sets of plants: a) seed treatment with safener, as described above
(§8) The herbicides were formulated as WP and was sprayed onto the soil surface as an aqueous suspension at an equivalent water application rate of 300 l/ha.
(§9) After application, the test plants were kept in the greenhouse under good growth conditions. At intervals up to 4 weeks after application (=28 days after treatment; DAT), % crop damage observed on the treated plants was scored visually in comparison to control plants that had not received any safener or herbicide treatment.
(§10) Values in the table below are mean values of at least 2 replicates.
Reduction[Difference]=herbicide damage without safener−herbicide damage with safener Reduction[%]=(Reduction[Difference]*100)/herbicide damage without safener a) Plant Species, Variety: TRZAS Triso, Safener (SAF): Isoxadifen-Ethyl

ZEAMA Sileno [1] = experiment: as above; assay type: in vivo, maize; design: key to Reduction [Difference]: % crop damage without safener minus % damage with safener; settings: HER 80 g a.i./ha pre-emergence; for Reduction [%] / Reduction [Difference]: isoxadifen-ethyl 0.25 g a.i./kg seed; for HER effect + SAF: isoxadifen-ethyl seed treatment 0.25 g a.i./kg seed; for HER effect: no safener
Experimental: as §4, §5, §6, §7, §8, §9, §10
Reduction[Difference]=herbicide damage without safener−herbicide damage with safener Reduction[%]=(Reduction[Difference]*100)/herbicide damage without safener […]
c) Plant Species, Variety: ZEAMA Sileno, Safener (SAF): Isoxadifen-Ethyl

ZEAMA Sileno [2] = experiment: Tank-mix post-emergence crop damage, greenhouse, visual assessment; assay type: in vivo, maize; design: key to Reduction [Difference]: % points: herbicide damage without safener − damage with safener; settings: for HER effect + SAF / Reduction [%] / Reduction [Difference]: Final; for HER effect: no safener, Final assessment
Experimental: as §1, §2, §3
a) Plant Species, Variety: ZEAMA Sileno, Safener (SAF): Isoxadifen-Ethyl

HORVS Montoya = experiment: Safener seed treatment, pre-emergence herbicide, crop damage; assay type: in vivo, spring barley; design: key to Reduction [Difference]: % crop damage without safener minus % damage with safener; settings: for Reduction [%] / Reduction [Difference]: isoxadifen-ethyl 0.25 g a.i./kg seed; for HER effect + SAF: isoxadifen-ethyl seed treatment 0.25 g a.i./kg seed; for HER effect: no safener
Experimental: as §4, §5, §6, §7, §8, §9, §10
Reduction[Difference]=herbicide damage without safener−herbicide damage with safener Reduction[%]=(Reduction[Difference]*100)/herbicide damage without safener b) Plant Species, Variety: HORVS Montoya, Safener (SAF): Isoxadifen-Ethyl

[3] = HER 32 g a.i./ha + isoxadifen-ethyl 100 g a.i./ha
[4] = HER 32 g a.i./ha, isoxadifen-ethyl 100 g a.i./ha
[5] = HER 8 g a.i./ha + isoxadifen-ethyl 50 g a.i./ha
[6] = HER 8 g a.i./ha, isoxadifen-ethyl 50 g a.i./ha
[7] = HER 15 g a.i./ha pre-emergence, 11 DAT (Interim)
[8] = HER 15 g a.i./ha pre-emergence, 21 DAT (Final)
[9] = HER 5 g a.i./ha pre-emergence, 21 DAT (Final)
[10] = HER 2 g a.i./ha, isoxadifen-ethyl 100 g a.i./ha

SMILES | HER effect + SAF (ZEAMA Abraxas; [3]) | Reduction [%] (ZEAMA Abraxas; [4]) | Reduction [Difference] (ZEAMA Abraxas; [4]) | HER effect (ZEAMA Abraxas; HER 32 g a.i./ha) | HER effect + SAF (ZEAMA Abraxas; [5]) | Reduction [%] (ZEAMA Abraxas; [6]) | Reduction [Difference] (ZEAMA Abraxas; [6]) | HER effect (ZEAMA Abraxas; HER 8 g a.i./ha) | other results
COC(=O)C1C=CC(NC(=O)C2(C(F)(F)F)CC(c3cc(C)cc(F)c3)=NO2)C1 (mixture of isomers) [Example 1.22] | 0% | 100% | 20 | 20% |  |  |  |  | 
CC1(C(=O)NC2C=CC(C(=O)OCCCl)C2)CC(c2cc(F)cc(F)c2)=NO1 (mixture of isomers) [Example 1.47] | 38% | 39% | 24 | 62% |  |  |  |  | 
C=CC1(C(=O)NC2CC=C(C(=O)OC)C2)CC(c2cc(F)cc(F)c2)=NO1 (mixture of isomers) [Example 1.60] | 57% | 39% | 37 | 94% | 20% | 64% | 35 | 55% | 
C=CC1(C(=O)NC2COC(C(=O)OC)C2)CC(c2cc(C)cc(F)c2)=NO1 (mixture of isomers) [Example 1.71] | 35% | 62% | 56 | 91% | 17% | 71% | 41 | 58% | 
CC1(C(=O)NC2COC(C(=O)OCc3cccc(F)c3)C2)CC(c2cc(F)cc(F)c2)=NO1 (mixture of isomers) [Example 1.76] |  |  |  |  | 33% | 63% | 57 | 90% | 
C=CC1(C(=O)NC2COC(C(=O)OCc3ccc(OC)cc3)C2)CC(c2cc(C)cc(F)c2)=NO1 (mixture of isomers) [Example 1.86] |  |  |  |  | 12% | 63% | 20 | 32% | 
COCCOC(=O)C1C=CC(NC(=O)C2(CCl)CC(c3cc(F)cc(F)c3)=NO2)C1 (stereo not shown) [Example 1.1] | 45% | 53% | 50 | 95% | 20% | 78% | 73 | 93% | 
COCCOC(=O)C1C=CC(NC(=O)C2(C)CC(c3cc(Cl)cc(C#N)c3)=NO2)C1 (stereo not shown) [Example 1.5] |  |  |  |  |  |  |  |  | Reduction [%] (TRZAS Triso; 11 DAT (Interim)): 80%; Reduction [Difference] (TRZAS Triso; 11 DAT (Interim)): 20; HER effect + SAF (TRZAS Triso; 11 DAT (Interim)): 5%; HER effect (TRZAS Triso; 11 DAT (Interim)): 25%; Reduction [%] (ZEAMA Sileno [1]; 14 DAT): 50%; Reduction [Difference] (ZEAMA Sileno [1]; 14 DAT): 30; Reduction [%] (ZEAMA Sileno [1]; 26 DAT): 56%; Reduction [Difference] (ZEAMA Sileno [1]; 26 DAT): 25; HER effect + SAF (ZEAMA Sileno [1]; 14 DAT): 30%; HER effect + SAF (ZEAMA Sileno [1]; 26 DAT): 20%; HER effect (ZEAMA Sileno [1]; 14 DAT): 60%; HER effect (ZEAMA Sileno [1]; 26 DAT): 45%; HER effect + SAF (ZEAMA Sileno [2]; [5]): 18%; Reduction [%] (ZEAMA Sileno [2]; [6]): 79%; Reduction [Difference] (ZEAMA Sileno [2]; [6]): 67; HER effect (ZEAMA Sileno [2]; HER 8 g a.i./ha): 85%; HER effect + SAF (ZEAMA Sileno [2]; [3]): 47%; Reduction [%] (ZEAMA Sileno [2]; [4]): 51%; Reduction [Difference] (ZEAMA Sileno [2]; [4]): 49; HER effect (ZEAMA Sileno [2]; HER 32 g a.i./ha): 96%
CSCCOC(=O)C1C=CC(NC(=O)C2(C(F)(F)F)CC(c3cc(F)cc(F)c3)=NO2)C1 (stereo not shown) [Example 1.7] |  |  |  |  |  |  |  |  | Reduction [%] (TRZAS Triso; 11 DAT (Interim)): 56%; Reduction [Difference] (TRZAS Triso; 11 DAT (Interim)): 25; HER effect + SAF (TRZAS Triso; 11 DAT (Interim)): 20%; HER effect (TRZAS Triso; 11 DAT (Interim)): 45%; Reduction [%] (HORVS Montoya; [7]): 50%; Reduction [Difference] (HORVS Montoya; [7]): 25; Reduction [%] (HORVS Montoya; [8]): 83%; Reduction [Difference] (HORVS Montoya; [8]): 25; HER effect + SAF (HORVS Montoya; [7]): 25%; HER effect + SAF (HORVS Montoya; [8]): 5%; HER effect (HORVS Montoya; [7]): 50%; HER effect (HORVS Montoya; [8]): 30%
CC1(C(=O)NC2C=CC(C(=O)O)C2)CC(c2cc(F)cc(F)c2)=NO1 (stereo not shown) [Example 1.36] |  |  |  |  |  |  |  |  | Reduction [%] (TRZAS Triso; 11 DAT (Interim)): 29%; Reduction [Difference] (TRZAS Triso; 11 DAT (Interim)): 20; Reduction [%] (TRZAS Triso; 21 DAT (Final)): 64%; Reduction [Difference] (TRZAS Triso; 21 DAT (Final)): 45; HER effect + SAF (TRZAS Triso; 11 DAT (Interim)): 50%; HER effect + SAF (TRZAS Triso; 21 DAT (Final)): 25%; HER effect (TRZAS Triso; 11 DAT (Interim)): 70%; HER effect (TRZAS Triso; 21 DAT (Final)): 70%; Reduction [%] (HORVS Montoya; [9]): 44%; Reduction [Difference] (HORVS Montoya; [9]): 20; HER effect + SAF (HORVS Montoya; [9]): 25%; HER effect (HORVS Montoya; [9]): 45%; Reduction [%] (HORVS Montoya; [8]): 43%; Reduction [Difference] (HORVS Montoya; [8]): 30; HER effect + SAF (HORVS Montoya; [8]): 40%; HER effect (HORVS Montoya; [8]): 70%
C=CC1(C(=O)NC2C=CC(C(=O)O)C2)CC(c2cc(F)cc(F)c2)=NO1 (stereo not shown) [Example 1.58] | 15% | 84% | 80 | 95% | 17% | 73% | 45 | 62% | 
C=CC1(C(=O)NC2C=C(C(=O)OCCOC)OC2)CC(c2cc(C)cc(F)c2)=NO1 (stereo not shown) [Example 1.89] | 17% | 62% | 28 | 45% | 3% | 90% | 27 | 30% | 
C=CC1(C(=O)NC2C=C(C(=O)OC)OC2)CC(c2cc(C)cc(C)c2)=NO1 (stereo not shown) [Example 1.90] |  |  |  |  |  |  |  |  | HER effect + SAF (ZEAMA Abraxas; HER 2 g a.i./ha + isoxadifen-ethyl 100 g a.i./ha): 5%; Reduction [%] (ZEAMA Abraxas; [10]): 80%; Reduction [Difference] (ZEAMA Abraxas; [10]): 20; HER effect (ZEAMA Abraxas; HER 2 g a.i./ha): 25%
C=CC1(C(=O)NC2C=C(C(=O)OCC#N)OC2)CC(c2cc(F)cc(F)c2)=NO1 (stereo not shown) [Example 1.91] |  |  |  |  |  |  |  |  | Reduction [%] (TRZAS Triso; 21 DAT (Final)): 75%; Reduction [Difference] (TRZAS Triso; 21 DAT (Final)): 30; HER effect + SAF (TRZAS Triso; 21 DAT (Final)): 10%; HER effect (TRZAS Triso; 21 DAT (Final)): 40%
